Source: article PMC6683399, “Identification of a novel S6K1 inhibitor, rosmarinic acid methyl ester, for treating cisplatin-resistant cervical cancer” (BMC Cancer, 2019)

Molecular target: T1, S6K1 (p70 S6K1, ribosomal protein S6 kinase 1) (Homo sapiens, UniProt P23443)
T1 construct: gene RPS6KB1; recombinant active S6K1 (R&D systems 896-KS)
Assay: in vitro kinase assay with recombinant S6K1 and GST-S6 (also H2B) substrate, […] ATP, immunoblot readout
Assay type: biochemical

T1 sequence (P23443 whole entry): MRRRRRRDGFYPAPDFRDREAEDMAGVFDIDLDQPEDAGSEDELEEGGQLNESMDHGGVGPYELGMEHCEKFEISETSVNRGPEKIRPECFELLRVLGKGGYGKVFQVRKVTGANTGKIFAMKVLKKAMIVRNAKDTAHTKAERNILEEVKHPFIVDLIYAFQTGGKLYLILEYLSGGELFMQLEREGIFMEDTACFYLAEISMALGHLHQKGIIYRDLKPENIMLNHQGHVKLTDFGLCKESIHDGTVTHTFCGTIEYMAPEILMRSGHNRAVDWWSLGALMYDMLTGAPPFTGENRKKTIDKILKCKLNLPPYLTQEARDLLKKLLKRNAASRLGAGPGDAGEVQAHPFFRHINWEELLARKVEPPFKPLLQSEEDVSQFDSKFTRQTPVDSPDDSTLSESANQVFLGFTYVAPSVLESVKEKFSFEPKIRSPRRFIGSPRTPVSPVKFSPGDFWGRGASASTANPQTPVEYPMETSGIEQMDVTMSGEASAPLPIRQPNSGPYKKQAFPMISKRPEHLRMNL

COC(=O)[C@@H](Cc1ccc(O)c(O)c1)OC(=O)/C=C/c1ccc(O)c(O)c1 [RAME, rosmarinic acid methyl ester]
in vitro kinase assay with recombinant S6K1 and GST-S6 (also H2B) substrate, 100: RAME inhibited the phosphorylation of S6 in dose-dependent manner (Fig. 2b)
